The values below come from paper PMC9138994 (Biomolecules, 2022).

Values joined by “and” are separate entries in the source; they are usually repeats but may differ in a detail not shown here. Equal values may be shown once. Marks after values point to notes of the source that are not given here.

The subject of one assay is D1R. Also noted: method as in earlier work. To be noted: ref 19 (Vanover et al.); cited from earlier work.
Another assay has as its system D3R. Also noted: method as in earlier work. Particulars: ref 19 (Vanover et al.); cited from earlier work.
The next assay has as its system H3R. More on the design: method as in earlier work. Particulars: ref 19 (Vanover et al.); cited from earlier work.
A further assay has as its system H1R. More on the design: method as in earlier work. To be noted: ref 19 (Vanover et al.); cited from earlier work.
In the next assay the target is T1, hD3R (Homo sapiens, UniProt P35462).
T1 construct: expressed in transfected cells; host or cells: CHO-K1
T1 sequence (P35462 whole entry): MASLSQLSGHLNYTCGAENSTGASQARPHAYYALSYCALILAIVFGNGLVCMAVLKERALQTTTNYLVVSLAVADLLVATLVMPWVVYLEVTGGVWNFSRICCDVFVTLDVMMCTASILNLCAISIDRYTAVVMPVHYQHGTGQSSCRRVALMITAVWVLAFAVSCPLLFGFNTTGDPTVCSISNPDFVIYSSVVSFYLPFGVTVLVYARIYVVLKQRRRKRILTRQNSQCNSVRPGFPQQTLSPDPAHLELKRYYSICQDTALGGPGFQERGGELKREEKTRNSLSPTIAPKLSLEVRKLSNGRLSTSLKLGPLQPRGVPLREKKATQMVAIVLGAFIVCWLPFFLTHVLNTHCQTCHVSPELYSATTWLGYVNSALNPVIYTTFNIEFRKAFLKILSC
The assay can be described thus: Radioligand displacement assay at dopamine D3R ([3H]-spiperone, CHO-K1 cells). The format is binding. To be noted: CHO-K1 cells stably expressing human D3R, read-out: Ki (n), D3R. On the procedure:
To determine the human D3R affinity, compounds and reference substances were tested in a [^3H]-spiperone competition binding assay as described by Bautista-Aguilera et al.. The assay was conducted with membrane preparations of CHO-K1 cells stably expressing hD3R. Membrane fractions (20 μg/well in a final volume of 0.2 mL binding buffer) were incubated with [^3H]-spiperone (0.2 nM) and the test compounds for 120 min at r.t. under shaking. Assays were run in triplicates with at least six appropriate concentrations between 0.1 nM and 100 µM for the test compound. Nonspecific binding was determined in the presence of 10 µM haloperidol.

Another assay addresses T2, hH1R (Homo sapiens, UniProt P35367).
T2 construct: expressed in transfected cells; host or cells: CHO-K1
The assay can be described thus: [3H]-pyrilamine displacement assay at histamine H1R (CHO-K1 cells). It counts as binding. Particulars: CHO-K1 cells stably expressing human H1R; [3H]-pyrilamin; read-out: Ki (n), H1R. Here is the method: To determine the human H1R affinity, compounds and reference substances were tested in a [^3H]-pyrilamine displacement assay. The assay was conducted with membrane preparations of CHO-K1 cells stably expressing hH1R. Transfection, cell culture, and membrane preparation were described in detail by Smit and colleagues. For the competition binding assay, membrane fractions (40 μg/well in a final volume of 0.2 mL binding buffer) were incubated with [^3H]-pyrilamine (1 nM) and the test compounds in different concentrations for 120 min at r.t. under shaking. The experimental assays were carried out in triplicate with at least six appropriate concentrations between 0.1 nM and 100 μM for the test compounds. Nonspecific binding was evaluated in the presence of the standard H1R antagonist chlorpheniramine hydrogen maleate at a concentration of 10 µM. The following steps were performed as described before.

A further assay addresses T3, hD1R (Homo sapiens, UniProt P21728).
T3 construct: expressed in transfected cells; host or cells: HEK293
The assay can be described thus: Radioligand displacement assay at dopamine D1R ([3H]-SCH23390, HEK293 cells). It counts as binding. To be noted: HEK293 cells stably expressing human D1R, read-out: Ki (n), D1R. On the procedure:
hD1R affinity was determined according to the procedure of hD3R [43]. Membrane preparations of HEK293 cells stably expressing the hD1R were used with 20 µg/well. [^3H]-SCH23390 was used as radioligand in a concentration of 0.3 nM. Nonspecific binding was determined in the presence of 100 µM fluphenazine. The following steps were performed as describedbefore.

Assay [1] addresses T4, human histamine H3 receptor (Homo sapiens, UniProt Q9Y5N1).
T4 construct: expressed in transfected cells; host or cells: HEK293
Briefly: Radioligand displacement assay at histamine H3 receptor ([3H]-Nα-methylhistamine, HEK293 membranes). It counts as binding. Particulars: HEK293 cells stably expressing human H3R, read-out: Ki [CI 95%] (n), H3R. Here is the method: Radioligand displacement assays were performed as described previously. HEK293 cells stably expressing the human histamine H3 receptor [37] were grown in Dulbecco’s modified Eagle’s medium, supplemented with 2 mM glutamine, 10 mM HEPES, 10% fetal bovine serum, and 10 μL/mL penicillin/streptomycin in an atmosphere of 5% CO2 at 37 °C. Cells were grown to confluence. The medium was removed, and cells were collected in 15 mL ice-cold phosphate-buffered saline (PBS) (140 mM NaCl, 3 mM KCl, 1.5 mM KH2PO4, 8 mM Na2HPO4, pH 7.4). The cell suspension was centrifuged two times at 3000× g for 10 min with subsequent aspiration in 20 mL of PBS buffer at 4 °C. […]
Competition binding experiments were carried out as follows: membranes (20 μg/well in a final volume of 0.2 mL binding buffer) were incubated with [^3H]-N^α-methylhistamine (2 nM), purchased from PerkinElmer (Waltham, MA, USA), and different concentrations of the respective test ligand. […] Non-specific binding was determined in the presence of the selectively acting histamine H3 receptor inverse agonist/antagonist pitolisant (10 μM). […] Liquid scintillation counting using a PerkinElmer MicroBeta Trilux scintillation counter was used to determine the amount of radioactivity collected on the filter used in the current experiment. […]

The target of another assay is T5, hH4R (Homo sapiens, UniProt P04899+Q9H3N8).
T5 construct: expressed in transfected cells; host or cells: Sf9 insect cells
T5 sequence (Q9H3N8+P04899 fused): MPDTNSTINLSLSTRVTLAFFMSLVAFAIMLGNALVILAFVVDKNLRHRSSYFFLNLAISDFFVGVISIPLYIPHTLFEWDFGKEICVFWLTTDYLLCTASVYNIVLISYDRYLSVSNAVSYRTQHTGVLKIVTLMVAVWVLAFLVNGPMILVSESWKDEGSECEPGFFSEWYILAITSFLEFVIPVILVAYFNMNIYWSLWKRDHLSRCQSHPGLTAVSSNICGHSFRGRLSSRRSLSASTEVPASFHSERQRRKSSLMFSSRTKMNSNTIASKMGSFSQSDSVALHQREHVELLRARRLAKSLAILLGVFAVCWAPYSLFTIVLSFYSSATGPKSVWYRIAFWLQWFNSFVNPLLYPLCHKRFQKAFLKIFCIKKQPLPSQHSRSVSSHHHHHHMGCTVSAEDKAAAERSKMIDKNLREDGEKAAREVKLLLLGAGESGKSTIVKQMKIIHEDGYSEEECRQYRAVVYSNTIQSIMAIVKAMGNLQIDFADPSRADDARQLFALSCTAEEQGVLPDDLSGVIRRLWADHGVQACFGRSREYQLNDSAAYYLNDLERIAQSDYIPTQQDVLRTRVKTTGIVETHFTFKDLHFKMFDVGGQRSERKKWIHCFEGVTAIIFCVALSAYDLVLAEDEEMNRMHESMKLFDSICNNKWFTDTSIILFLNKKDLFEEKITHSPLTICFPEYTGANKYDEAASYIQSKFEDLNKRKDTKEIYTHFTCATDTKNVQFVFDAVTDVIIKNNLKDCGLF
Briefly: [3H]-histamine competition binding assay at histamine H4R (Sf9 membranes). Particulars: Sf9 cell membranes expressing human H4R with Gαi2 and Gβ1γ2, read-out: Ki (n), H4R. Here is the method:
To determine the human H4R affinity, compounds and reference structures were examined in a [^3H]-histamine dihydrochloride competition binding assay. Cell culture and membrane preparation of Sf9 cells co-expressing hH4R-Gαi2 fusion protein with Gβ1γ2 was prepared as described by Schneider and co-workers.
The competition binding assay has been performed as described previously by Sander, Kottke, and Schwed from the Stark Lab. Cell membranes were sedimented by 3 min centrifugation at 25 °C and […] and were resuspended in binding buffer. Competition binding experiments were carried out by incubating the membranes (40 µg/0.2 mL binding buffer) and [^3H]-histamine dihydrochloride (10 nM) with test compounds for 60 min at r.t. Assays were run in triplicates with four to seven appropriate concentrations between 0.1 nM and 100 µM for the test compound. Nonspecific binding was determined in the presence of 100 µM JNJ7777120. The following steps were performed as described before.

T4 sequence (Q9Y5N1 whole entry): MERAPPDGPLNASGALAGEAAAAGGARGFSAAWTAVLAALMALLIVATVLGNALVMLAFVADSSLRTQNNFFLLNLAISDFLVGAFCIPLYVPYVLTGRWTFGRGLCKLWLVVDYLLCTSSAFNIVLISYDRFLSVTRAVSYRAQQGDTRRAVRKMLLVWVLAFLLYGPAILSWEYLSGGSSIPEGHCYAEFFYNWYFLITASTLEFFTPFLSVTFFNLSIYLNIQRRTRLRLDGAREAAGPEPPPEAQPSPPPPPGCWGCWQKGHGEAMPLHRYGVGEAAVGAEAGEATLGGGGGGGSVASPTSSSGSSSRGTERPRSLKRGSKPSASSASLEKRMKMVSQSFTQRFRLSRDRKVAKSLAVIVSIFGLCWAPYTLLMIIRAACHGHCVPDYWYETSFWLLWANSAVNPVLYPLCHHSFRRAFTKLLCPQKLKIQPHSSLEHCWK
T3 sequence (P21728 whole entry): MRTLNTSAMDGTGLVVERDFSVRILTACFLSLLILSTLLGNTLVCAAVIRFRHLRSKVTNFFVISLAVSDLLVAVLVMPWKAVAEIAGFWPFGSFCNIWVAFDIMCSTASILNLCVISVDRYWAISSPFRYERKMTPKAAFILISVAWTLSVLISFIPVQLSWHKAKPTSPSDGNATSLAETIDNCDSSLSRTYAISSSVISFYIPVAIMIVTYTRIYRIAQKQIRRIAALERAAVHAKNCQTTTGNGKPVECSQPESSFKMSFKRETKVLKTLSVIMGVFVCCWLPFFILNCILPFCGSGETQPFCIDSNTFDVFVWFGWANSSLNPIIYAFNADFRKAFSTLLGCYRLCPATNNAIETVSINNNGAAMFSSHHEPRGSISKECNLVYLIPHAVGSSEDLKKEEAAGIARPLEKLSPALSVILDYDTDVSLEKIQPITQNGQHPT
T2 sequence (P35367 whole entry): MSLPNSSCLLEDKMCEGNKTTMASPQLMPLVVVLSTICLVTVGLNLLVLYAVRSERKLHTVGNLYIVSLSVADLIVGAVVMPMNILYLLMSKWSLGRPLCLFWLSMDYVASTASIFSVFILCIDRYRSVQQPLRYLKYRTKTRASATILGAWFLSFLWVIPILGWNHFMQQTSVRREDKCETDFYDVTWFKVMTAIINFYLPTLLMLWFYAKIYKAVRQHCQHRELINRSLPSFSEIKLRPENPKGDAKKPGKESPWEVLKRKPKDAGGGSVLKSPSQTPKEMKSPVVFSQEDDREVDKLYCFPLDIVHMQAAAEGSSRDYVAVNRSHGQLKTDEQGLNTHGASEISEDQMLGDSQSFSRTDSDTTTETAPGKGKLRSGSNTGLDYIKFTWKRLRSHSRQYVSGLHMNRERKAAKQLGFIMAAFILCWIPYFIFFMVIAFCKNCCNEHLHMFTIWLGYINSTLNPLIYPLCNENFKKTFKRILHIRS

In the case of `CC(C)COc1ccc(CNC(=O)N(Cc2ccc(F)cc2)C2CCN(C)CC2)cc1` [Pimavanserin, reference compound], the “inhibition at 10 µM, D1R” value in the assay on D1R is “inhibition at 10 µM: <50% ^a”. The “inhibition at 10 µM, D3R” value in the assay on D3R is given as “inhibition at 10 µM: 60% ^a”. The “inhibition at 10 µM, H3R” value in the assay on H3R was “inhibition at 10 µM: <50% ^a”. The “inhibition at 10 µM, H1R” value in the assay with H1R was “inhibition at 10 µM: <50% ^a”.

Regarding `CN1CCC(N(Cc2ccc(F)cc2)C(=O)NCc2ccc(OCCCN3CCCCC3)cc2)CC1` [ST-2300, 1-(4-Fluorobenzyl)-1-(1-methylpiperidin-4-yl)-3-{4-[3-(piperidin-1-yl)propoxy]benzyl}urea], the Ki at hD3R was more than 10 µM; on hH1R it was more than 5 µM; on hD1R it was more than 10 µM; in assay [1], 0.014 µM and 0.0144 µM; on hH4R, more than 1 µM.
